# According to patent US12534510B2, “Peptide-receptive MHC-I complex compositions and methods” (priority 2020, dated 2026):
# Legend:
# H-2L^d/TAPBPR complex = molecular target: T1, H-2L^d/TAPBPR complex (Mus musculus, UniProt P01897); test: SEC TAPBPR binding assay with LC-MS peptide occupancy; parameters: species or system murine; settings: 10 mM Gly-Phe dipeptide (GF)
# T1 construct: Plasmid DNA encoding the luminal domain of class I MHC (MHC-I) heavy chains H-2D^d, HLA-A*02:01, H-2L^d; made in house; Drosophila S2 for TAPBPR
# Description: Complexes were resolved on an Superdex 200 10/300 increase column (GE healthcare) at a flow rate of 0.5 mL/min in 100 mM NaCl and 20 mM sodium phosphate pH 7.2 at room temperature. MHC-I/TAPBPR complexes eluted at 26.5 min.
# [1] = molecular target: HLA-A*24:02/TAPBPR complex (Homo sapiens, UniProt P04439, D101N/D140Y/D185E/E176V/E190D/F33S/G103R/G107R/I119L/I121M/I306V/K335N/L105A/L180Q/L300P/N151K/N90K/Q86E/Q94H/R106L/R138H/R89G/T104I/T345S/V100E/W191G/Y123F); test: Native gel dissociation of MHC-I/TAPBPR complex by peptide; type: biochemical; settings: HLA-A*24:02 refolded with gNEF, 10-fold molar excess peptide
# [2] = molecular target: HLA-A*68:02/TAPBPR complex (Homo sapiens, UniProt P04439, A269V/D140Y/D185E/E176V/E277Q/E87N/F33Y/G231S/I121R/I166T/I218V/L180W/L300P/L318F/N151K/P208A/P217A/Q86R/R138H/R169H/S129P/T345S/V36M); test: as above; type: biochemical; settings: HLA-A*68:02 refolded with gTAX, 10-fold molar excess peptide
# [3] = nanoDSF melting temperatures; type: physicochemical
# Description: In a volume of 20 μl, 1 μM peptide deficient HLA-A*02:01/TAPBPR was incubated with 20 μM of various peptides (FIG. 22) in a buffer of 20 mM sodium phosphate pH 7.2, 100 mM NaCl, 0.02% TWEEN-20 for at least one hour. 10 ul of each sample was loaded on the Prometheus NT.48 instrument (NanoTemper™) using the high sensitivity capillaries. NanoDSF™ measurements are performed using a temperature ramp rate of 1° C./min from 25° C. to 95° C. and an LED intensity of 20%. Data was analyzed using the PR Control software (NanoTemper™). Melting temperatures (Tm values) correspond to the inflection points of the first derivative of the 330/350 nm fluorescence ratio. Experiments were performed in duplicates and the shaded areas (FIG. 17b) are representative of the error.
# H-2D^d = H-2D^d (Mus musculus, UniProt P01900); settings: cited from earlier work
# H-2D^d/TAPBPR complex = H-2D^d/TAPBPR complex (Mus musculus, UniProt P01900)
# Description: Peptide occupancy of SEC purified MHC-I was determined by HPLC separation on a Higgins PROTO300 C4 column (5 μm, 100 mm×21 mm) followed by electrospray ionisation performed on a Thermo Finnigan LC/MS/MS (LQT) instrument. Peptides were identified by extracting expected m/z ions from the chromatogram and deconvoluting the resulting spectrum in MagTran.
# [4] = tested on: B4.2.3 TCR transgenic T cell line; test: Tetramer staining by flow cytometry; type: cell-based, murine; parameters: dose or concentration left out as unconfirmed; settings: stoichiometric (1:1) or catalytic (1:100) TAPBPR:MHC ratio
substance,measurement,setting,value
QLSPFPFDL [QL9],fate of bound peptide in the presence of TAPBPR,H-2L^d/TAPBPR complex,empty H-2L^d/TAPBPR complexes were obtained
"YPNVNIHNF (Sequence is synthesized) [p29, irrelevant, nonspecific peptide used as negative control]",effect of peptide on MHC-I/TAPBPR complex,[1],remain bound
same,effect of peptide on MHC-I/TAPBPR complex,[2],remain bound
"TAPBPR: chaperone protein homologue of Tapasin, luminal domain expressed in Drosophila S2 cells",Tm (nanoDSF inflection point),[3],52.5 °C
PNVNIHNF,fate of bound peptide in the presence of TAPBPR,H-2L^d/TAPBPR complex,remained bound
QYNPIRTTF (Sequence is synthesized) [PHOX2B],effect of peptide on MHC-I/TAPBPR complex,[1],complex dissociation
GPGRAFVTI [gP18-I10],increase in the peptide off-rate relative to full-length P18-I10 peptide,H-2D^d,100 fold
same,fate of bound peptide in the presence of TAPBPR,H-2D^d/TAPBPR complex,dissociated in the presence of TAPBPR
AGPARAAAL (Sequence is synthesized),tetramer staining,[4],No staining
RYPLTFGWCF (Sequence is synthesized) [Nef134-10],effect of peptide on MHC-I/TAPBPR complex,[1],complex dissociation
